One compound from paper PMC9643456, “Matching amino acids membrane preference profile to improve activity of antimicrobial peptides” (Communications Biology, 2022) can be followed below.

The assay concerns MDR A. baumannii, MDR S. aureus or MDR K. pneumonia. Put plainly: In vivo activity, subcutaneously infected mice. Also on record: species or system BALB/c mice. The procedure: Female BALB/c mice (8-week old; n = 10) were purchased from orientbio (Gyeonggido, Republic of Korea) and fed under standardized environmental conditions for 1 week to be used to estimate time-dependent mouse survival rates. After inducing neutropenia by intraperitoneal injection of cyclophosphamide (150 mg/kg; Sigma), MDR S. aureus (KCCM 40510), MDR A. baumannii (colistin-resistant strain) or MDR K. pneumonia (colistin-resistant strain, NCCP 16125) was diluted in PBS and subcutaneously injected into mice (S. aureus, 1.5 × 10^8 CFU/ml; A. baumannii, 1 × 10^8 CFU/ml; K. pneumonia, 1 × 10^9 CFU/ml). After bacterial infection, 100 μl of WCopW43 peptide dissolved in distilled water (10 mg/ml) were injected (50 mg/kg) into each infected site, and survival was monitored every 12 h for 7 days. For A. baumannii infection, mice were intraperitoneally injected with mucin ([…], 1% in PBS, 300 μl) to suppress macrophages, and A. baumannii cells were incubated with mucin (1% in PBS) for 3 h before subcutaneous injection of 2 × 10^8 CFU/ml (0.2% mucin in PBS)[71]–[74]. Survival rates were calculated using the formula: 100% × (number of surviving mice/ten mice). One day after WCopW43 (50 mg/kg) injection, four mice were randomly selected and sacrificed by CO2 inhalation. […] Homogenized samples were spread onto MH agar plates, and CFU values were determined after incubation overnight at 37 °C.

Structures are written as SMILES. Square brackets hold non-standard residues; d marks the D form. Peptide text beside a SMILES is read from it.

Consider `CC[C@@H](C)[C@@H](NC(=O)[C@@H](Cc1c[nH]c2ccccc12)NC(=O)[C@@H](CCCNC(=N)N)NC(=O)[C@@H](CCCNC(=N)N)NC(=O)[C@H](N)CCCNC(=N)N)C(=O)N[C@H](Cc1c[nH]c2ccccc12)C(=O)N[C@@H](C(=O)N[C@@H](C(=O)N[C@H](Cc1c[nH]c2ccccc12)C(=O)N[C@H](CCCCN)C(N)=O)[C@H](C)CC)C(C)C` [WCopW43] (H-[dR][dR][dR][dW][dI][dW][dV][dI][dW][dK]-NH2), for which the “Decrease of bacterial burden (CFU)” value (WCopW43 50 mg/kg s.c. 1 h after infection, tissue CFU one day after infection, vs PBS) is ~ 90%. For the setting “WCopW43 50 mg/kg s.c., neutropenic BALB/c mice, n = 10, 7 days”, the “Survival compared with PBS-injected mice” value was “survived longer”.
